Measured values published in US8492578B2, “Compounds useful in therapeutic and cosmetic methods” (Photoderma SA, priority 2007, dated 2013).
Entries after “also recorded” stand apart in the source; their conditions may differ. Where two headings read alike, the source gives them in different places.

Legend:
stratum corneum = test: PpIX fluorescence on intact skin vs skin with stratum corneum removed (permeability through stratum corneum); assay type: in vivo, human; conditions: for Fluoresence epidermis: Cold cream formulation, 3 hours after topical administration; for increase of fluorescence upon removal of the stratum corneum: SC removed vs intact skin
Procedure: Permeability of compounds of the invention through the stratum corneum is assessed by measurements of fluorescence of PpIX. The expression “PpIX”, for the purpose of the present specification, stands for PpIX as reported in the literature and other natural porphyrins producing a fluorescent signal following illumination with suitable light. Permeability of the compounds of the present invention is determined by comparing PpIX-induced fluorescence of compounds of the invention applied on the surface of intact skin with fluorescence induced by the same compounds applied on skin from which the stratum corneum has been removed.
The stratum corneum was removed by dry shaving with a razor blade (BIC Classic 1 lame). The lame is gently swept 8 times over the skin without using water, razor foam or any other lubricant.
Formulations comprising compounds of the invention and controls are administered topically on the forearm or the leg using the Tegaderm™ transparent dressing. This dressing enables the transport of water and oxygen according to the specifications of the manufacturer. This dressing was removed and the remaining formulation cleaned with water just before the measurements.
A fluorescence imaging system illustrated in FIG. IX of WO 03/041673 is used to assess the extent and level of PpIX production in “macroscopic” samples (parts of the human body such as: forearm, leg, back, etc.). The experimental equipment and descriptions, as well as the ALA-DGME compounds disclosed therein are expressly incorporated herein by reference. As the goal is to assess the relative level of PpIX, red light at 635 nm is chosen as PpIX fluorescence excitation wavelength. It is indeed well known that red light penetrates deeper in the cutaneous tissues than green and violet light, the later two wavelengths corresponding to larger PpIX absorption peaks (see the PpIX fluorescence excitation and emission spectra presented on the right side in FIG. IX of WO 03/041673).
As presented in the schematic diagram presented in FIG. IX of WO 03/041673, this fluorescence imaging system involves a modified 300 W D-light source 1 (Xe arc lamp from Storz, Tuttlingen, Germany) equipped with a red bandpass filter (635 nm, 20 nm FWHM; Chroma, USA). This fluorescence excitation light is coupled in a Storz 4 mm diameter light guide 2. The output of this light guide is imaged on the tissue sample 3 with a projection objective 4 (Nikon, Japan; A F Nikkor; 1:1.4 D/50 mm) to generate a homogenous spot of 2.5 cm in diameter with an irradiance of 2 mW/cm^2 at 635 nm. The distance between this projection objective 4 and the sample 3 is 25 cm. Therefore, the light beam illuminating the sample can be considered as parallel. The fluorescence is collected by another objective 5 (Fujinon, Japan; TV zoom lens; 1:1.2/12.5-75 mm; Type H6X12.5R-MD3) through a longpass filter 6 (Schott, Germany; RG665) and the image detected by a scientific CCD camera (752×582 pixels CF 8/1 Kappa, Gleichen, Germany) equipped 7 with an image intensifier (Proxifier BV 256-2FcZ-CH, Proxitronic, Bensheim, Germany). The images are captured by the 8-bits camera frame grabber and saved on the computer 8 with the “Kappa Imagebase-control” software. Image treatment is carried out using the IPLab imaging software. The spatial resolution of the complete setup has been measured with an USAF resolution target and the value we obtained in the sample plan is 3 lp/mm, the size of the image detected by the camera being 3×4 cm^2.
A reference sample is been designed to enable a comparison of the relative fluorescence brightness between samples investigated at different times. This reference consists of a ruby disk (diameter: 12 mm; thickness: 1.02 mm; Type 8Sp3, Hans Stettler S A, Lyss, Switzerland) covered with a neutral density filter (T=2.27%) so that the signal obtained with this reference sample corresponds to the typical tissue fluorescence detected in our conditions. The images are analyzed using the NIH image software. […]

[1] = literature reports and Metvix package leaflet; cited from earlier work
hair follicles = test: Fluorescence imaging of skin after hair removal (selectivity for hair follicle); assay type: in vivo, human; conditions: for distribution of fluorescence on skin: 20 wt. % formulation, applied after epilation
Procedure: FIGS. 1-10 are fluorescence images of human forearm or leg skin areas of 2.5 cm in diameter, the pictures being taken three hours after administration of different photosensitizer precursors under variable experimental conditions.
FIGS. 1A-B are fluorescence photographs of human skin to which compounds of the invention were applied. A formulation containing phenylalanin-ALA-amide (compound 1) at 80 wt. % was topically applied to the skin and pictures were taken 3 hours following administration. In FIG. 1A, skin was not pre-treated and fluorescence was measured with 20 milliseconds (ms) exposure time. In FIG. 1B, hair was mechanically removed by wax-epilation before administration of the formulation and fluorescence was measured with 10 milliseconds (ms) exposure time.
Formulations comprising compounds of the invention and controls are administered topically on the forearm or the leg using the Tegaderm™ transparent dressing. This dressing enables the transport of water and oxygen according to the specifications of the manufacturer. […]
A fluorescence imaging system illustrated in FIG. IX of WO 03/041673 is used to assess the extent and level of PpIX production in “macroscopic” samples (parts of the human body such as: forearm, leg, back, etc.). […] As the goal is to assess the relative level of PpIX, red light at 635 nm is chosen as PpIX fluorescence excitation wavelength. It is indeed well known that red light penetrates deeper in the cutaneous tissues than green and violet light, the later two wavelengths corresponding to larger PpIX absorption peaks (see the PpIX fluorescence excitation and emission spectra presented on the right side in FIG. IX of WO 03/041673).
As presented in the schematic diagram presented in FIG. IX of WO 03/041673, this fluorescence imaging system involves a modified 300 W D-light source 1 (Xe arc lamp from Storz, Tuttlingen, Germany) equipped with a red bandpass filter (635 nm, 20 nm FWHM; Chroma, USA). This fluorescence excitation light is coupled in a Storz 4 mm diameter light guide 2. […]

sebaceous gland = test: Microscopic fluorescence image of tissue sample; conditions: formulation comprising 20 wt. %
Pytirosporum ovale = test: Photodestruction of the yeast P. ovale 24 hours after PDT; assay type: in vivo, human; conditions: 5 wt. % in Cold cream; 3 hours, then 5-15 J/cm^2 red light; 24 hours after light exposure
Procedure: 24 hours after the end of the light exposure, scales are collected using a patch-strip method (D-Squame. Cuderm Corp. Dallas. US) and P. ovale can be counted under fluorescence microscope using a fluorochrome which is selective for this type of yeast (Fungiqual A. Kandern. D E).

[2] = system: skin area affected with seborrheic dermatitis; test: Cosmetic PDT treatment of seborrheic dermatitis; assay type: in vivo, human; conditions: 5% in Cold cream
Propionobacterium acnes = test: Photodestruction of P. acnes immediately after PDT; assay type: in vivo, human; conditions: face of a volunteer
Source text: Immediately after illumination, the bacteria present on the administration zone are collected by immersion in a collection buffer allowing bacteria to detach and survive in suspension. Collection samples are inoculated, after suitable dilution, on agar plates, which are selective for p. acnes. CFU (Colony Forming Units) are counted after 5 days of growth on selective medium.

[3] = skin treatment: No (intact skin)
[4] = skin treatment: SC removed by dry shaving
[5] = fluorescence on intact skin relative to skin with SC removed

Procedure for psoriatic plaque: ALA-DGME 5% is prepared in Cold cream as in the previous example. 50 mg of 5% ALA-DGME in Cold cream are applied to the psoriatic plaque. 3 hours later, the zone which received ALA-DGME is exposed to 10-30 J/cm^2 of red light. The treatment is repeated 6 times with a 2 weeks interval.

Compound	Fluoresence epidermis (stratum corneum; [3])	Fluoresence epidermis (stratum corneum; [4])	Penetration through epidermis (%) (stratum corneum; [5])	also measured
NCC(=O)CCC(=O)O [ALA, 5-aminolevulinic acid, reference compound]	31 arbitrary relative units	52 arbitrary relative units		Penetration through epidermis (%) (stratum corneum; human): 59.6%; allergenic potential [1]: has not demonstrated such an allergenic potential; distribution of fluorescence on skin (hair follicles): fluorescence is non-specific and uniformly distributed over the entire skin area
CCOCCOCCOC(=O)CCC(=O)CN [ALA-DGME, diethylene-glycol monoethyl ether ester of ALA]	20 arbitrary relative units	57 arbitrary relative units	35.1%	fluorescence in tissue sample (microscopic image) (sebaceous gland): fluorescence in sebaceous gland; psoriasis plaque after several PDT treatments (psoriatic plaque; 5% in Cold cream, 10-30 J/cm^2 red light, repeated 6 times with 2 weeks interval): partial clearance; accumulation of photosensitizer in psoriasis lesions (red fluorescence) (psoriatic plaque; 5% in Cold cream, 3 hours): accumulated specifically in the psoriasis lesions; side effects to the surrounding skin (psoriatic plaque; after several PDT treatments, 5% in Cold cream): no side effects to the surrounding skin; selectivity of fluorescence for psoriasis plaque (psoriatic plaque; formulation comprising 20 wt. % (figure legend)): red fluorescence covering the psoriasis plaque solely; reduction in Pytirosporum ovale counts (Pytirosporum ovale): substantial reduction of yeast counts; side effects to the surrounding skin ([2]; 24 hours after PDT): no side effects to the surrounding skin; skin reaction after PDT ([2]; 24 hours after PDT, 5-15 J/cm^2 red light): slight redness; selectivity of fluorescence for affected skin ([2]; topically applied on skin with seborrheic dermatitis, 3 hours): accumulated specifically in the skin area affected with SD; also recorded: only affected skin area shows red fluorescence; adverse reaction on the skin (Propionobacterium acnes; 5% in Cold cream plus red light): No adverse reaction was observed; reduction in Propionobacerium acnes counts (CFU) (Propionobacterium acnes; 5% in Cold cream, 3 hours, then 5-15 J/cm^2 red light, immediately after illumination): suitable to kill microorganism present on the skin; also recorded: substantial reduction of bacterial counts; distribution of fluorescence on skin (hair follicles): fluorescence is discretely associated to specific small spots
NCC(=O)CCC(=O)NC(Cc1ccccc1)C(=O)O (stereo not shown) [Compound 1, Phenylalanine-ALA-amide]				fluorescence at positions of hair follicles (hair follicles; 80 wt. % formulation, hair removed by wax-epilation, 3 hours after administration, 10 ms exposure): spots of high fluorescence
NCC(=O)CCC(=O)Oc1ccc(CC(N)C(=O)O)cc1 (stereo not shown) [Compound 2, Tyrosine-ALA-ester]	0 arbitrary relative units	114 arbitrary relative units		
CC(C)CCCC(C)C1CCC2C3CC=C4CC(OC(=O)CCC(=O)CN)CCC4(C)C3CCC12C (stereo not shown) [Compound 6, ALA-Cholesteryl-ester]	1 arbitrary relative units	25 arbitrary relative units		increase of fluorescence upon removal of the stratum corneum (stratum corneum): 25 fold; Penetration through epidermis (%) (stratum corneum; human): 4%
NCC(=O)CCC(=O)O[C@H]1O[C@H](CO)[C@@H](O)[C@H](O)[C@H]1O [Compound 11, 1′-α-D-Glucose-ALA-ester]	0 arbitrary relative units	12 arbitrary relative units	0%	
NCC(=O)CCC(=O)OCC(O)C1OC(=O)C(O)=C1O (stereo not shown) [Compound 12, ALA-ascorbate-ester]	4 arbitrary relative units	20 arbitrary relative units		
CCCCCCOC(=O)CCC(=O)CN [Hexyl-ALA-ester, reference compound]	37 arbitrary relative units	88 arbitrary relative units		Penetration through epidermis (%) (stratum corneum): 42%
ALA-Cholesterylhexyl-ester [Compound 5]	7 arbitrary relative units	94 arbitrary relative units	7.44%	
ALA-ethyl-ester-ALA [Compound 8]	30 arbitrary relative units	225 arbitrary relative units	13.3%	increase of fluorescence upon removal of the stratum corneum (stratum corneum): 7.5 fold; Penetration through epidermis (%) (stratum corneum; fluorescence on intact skin relative to skin with SC removed, listed as compound 8): 13.3%
Phloroglucinol-tri-ALA-ester [Compound 7]	30 arbitrary relative units	187 arbitrary relative units	16%	
